Paper PMC6895199, “A new antiviral scaffold for human norovirus identified with computer-aided approaches on the viral polymerase” (Scientific Reports, 2019)
Like-named read-outs stand apart in the source and are kept apart here.

Test system: HuNoV GI.1 replicon
Assay: HuNoV GI replicon assay (HGT-NV cells, qRT-PCR)
Type: cell-based, human norovirus GI.1
Procedure: Given that in this system the gene encoding for the major capsid protein is replaced by a neomycin resistance gene, no new virus particles will be produced but the non-structural proteins are expressed and the replication of the genomic RNA can be studied.
Cells and virus: MNV (virus strain MNV-1.CW1) was propagated in RAW 264.7 cells grown in DMEM (Life Technologies, Gent, Belgium) supplemented with 10% or 2% FBS, 2 mM L-glutamine, 20 mM HEPES, 0.075 g/L sodium bicarbonate, 1 mM sodium pyruvate, 100 U penicillin/mL and 100 µg/mL streptomycin at 37 °C in a humidified atmosphere of 5% CO2. The human norovirus GI.1 replicon harboring gastric tumor-1 cell line (HGT-NV) (kindly provided by Dr. Ian Goodfellow, University of Cambridge) was maintained in DMEM supplemented with 10% FBS, 2mM L-glutamine, 0.075 g/L sodium bicarbonate and 1.0 mg/ml of Geneticin (G418; Life Technologies), at 37 °C in a humidified atmosphere of 5% CO2[34].
Antiviral assay with the HGT-NV replicon: The inhibitory effect of Compounds on human norovirus replication was assessed by quantification of the levels of HuNoV GI replicon RNA and of the reference (housekeeping) gene β-actin mRNA [by quantitative reverse transcription polymerase chain reaction (qRT-PCR)]. To this end, HGT cells (2000 cells/well) were seeded in 96-well plates, in complete DMEM without the selection marker G418. Following an incubation period of 24 h, a serial dilution of rupintrivir was added to the cultures. After 72 h of incubation, cell monolayers were washed with phosphate-buffered saline (PBS) and collected for quantification of RNA load by qRT-PCR. Intracellular RNA was extracted from cells using the cell-to-cDNA lysis buffer (Ambion, Life Technologies). For detection of HuNoV GI replicon RNA, forward (5′-CCG GCT ACC TGC CCA TTC-3′), reverse (5′-CCAGATCATCCTGATCGACAAG-3′) primers and probe (5′-FAM-ACATCGCATCGAGCGAGCACGTAC-TAMRA-3′) for the neomycin gene were used. For detection of β-actin mRNA, forward (5′-GGCATCCACGAAACTACCTT-3′), reverse (5′-AGCACTGTGTTGGCGTACAG-3′) primers and probe (5′-HEX-ATCATGAAGTGTGACGTGGACATCCG-BHQ1–3′) were used. One-step qRT-PCR was performed in a 20 µL reaction mixture containing 10 µl 2X iTaq Universal SYBR® Green one step reaction mix (Bio-rad, California, USA), 5.17 µl RNAse free water, 0.5 µl of iScript reverse transcriptase (Bio-rad, California, USA), 4 µl of the template RNA and either 300 nM of HuNoV GI replicon primers and probe, 300 nM of β-actin primers and 200 nM of probe. Cycling conditions were: reverse transcription at 50 °C for 10 min, initial denaturation at 95 °C for 3 min, followed by 40 cycles of denaturation at 95 °C for 15 s, annealing and extension at 60 °C for 30 seconds (Roche Lightcycler®96, Roche Diagnostics, Belgium). To determine the relative expression levels of HuNoV GI replicon RNA, β-actin was used as a normalizer and ratios were calculated using the Pfaffl method. The Expression Ratio (HuNoV GI Replicon/β-actin) was calculated as: Expression Ratio = (E HuNoV)^ΔCT, HuNoV (CC – TC)/(Eβ-actin)^ΔCT, β-actin (CC – TC), where E HuNoV and Eβ-actin represent the amplification efficiency (E = 10^–1/slope) for the HuNoV GI replicon and β-actin qRT-PCR reactions, respectively. ΔCT, HuNoV (CC – TC) is the Ct of untreated control cells (CC) minus the Ct of cells treated with a compound concentration (TC) obtained with HuNoV GI replicon primers and probe. ΔCT, β-actin (CC – TC) is the Ct of untreated control cells (CC) minus the Ct of cells treated with a compound concentration (TC) obtained with β-actin primers and probe. Efficiency values (E HuNoV and Eβ-actin) were determined for each qRT-PCR reaction.

[1] = HuNoV GI replicon in HGT-1 cells, 72 h, replicon RNA by qRT-PCR
[2] = Norwalk virus, HGT-1, 72 h, read-out: EC50 values (column head printed 'M'), HuNoV GI replicon in HGT-1 cells, replicon RNA by qRT-PCR

Row | Compound | EC50 values (column head printed 'M') [1] | EC50 [2] | EC50 (read-out: EC50 values (column head printed 'M'), HuNoV GI replicon in HGT-1 cells, 72 h, replicon RNA by qRT-PCR)
1 | O=C(NC(=S)Nc1ccc(N2CCN(C(=O)c3cccs3)CC2)cc1)c1sc2ccccc2c1Cl [Compound 48, 3-Chloro-N-((4-(4-(thiophene-2-carbonyl)piperazin-1-yl)phenyl)carbamothioyl)benzo[b]thiophene-2-carboxamide, reference compound] | do not display any significant antiviral activity | > 100 µM | –
2 | Cc1ccc(C(=O)NC(=S)Nc2ccc(N3CCN(C(=O)c4cccs4)CC3)cc2)cc1 [Compound 52, 4-Methyl-N-((4-(4-(thiophene-2-carbonyl)piperazin-1-yl)phenyl)carbamothioyl)benzamide] | low micromolar range | 6 µM | 6.1 ± 3.9 µM
3 | O=C(NC(=S)Nc1ccc(N2CCN(C(=O)c3nccs3)CC2)cc1)c1sc2ccccc2c1Cl [Compound 56, 3-Chloro-N-((4-(4-(thiazole-2-carbonyl)piperazin-1-yl)phenyl)carbamothioyl)benzo[b]thiophene-2-carboxamide] | do not display any significant antiviral activity | > 100 µM | –
